Results as given in patent US11278682B2, “Device and method for aerosolized delivery of substance to a natural orifice of the body” (SIPNOSE LTD., priority 2014, dated 2022).

Test system: patient suffering from epileptic seizures (SE)
Assay: Anti-epileptic treatment of status epilepticus with Midazolam, EEG recordings (case study)
Type: in vivo, human
Settings: 2 mg Midazolam via SipNose, nasal
Description: Case study of a patient, suffering from epileptic seizures (SE) was treated with a dose of 2 mg Midazolam with sipNose delivery device to deliver Midazolam via the nasal cavity.
Administration of Midazolam was done by administrating of […] of Midazolam to each nostril in a carrier volume of 1 ml. EEG recordings were measured before (FIGS. 82A and 82B) and 3 minutes following to the nasal administration of the drug with SipNose device.

Cc1ncc2n1-c1ccc(Cl)cc1C(c1ccccc1F)=NC2 [Midazolam]
time after administration at which brain activity (EEG) is back to normal: 3 min
